Earlier results as cited in patent US20080064913A1 (priority 2005, published 2008).

System: rat
Details: in vivo

NN [hydrazine]
LD50 (rat): 60 mg/kg
